# Patent US8815872B2, “Macrocyclics pyrimidines as aurora kinase inhibitors” (Merck Patent GmbH, priority 2008, dated 2014)
# What was measured:
# Experiment in all cases: Other kinases, single-concentration inhibition (Table 3)
# AMPK(r) = assay type: biochemical, rat
# Method: The Aurora and other kinase assays described here were performed on two Caliper Life Sciences systems, the LC3000 and the Desktop Profiler. These provide data on enzyme activity via measurement of the relative amounts of phosphorylated or unphosphorylated fluorescently labelled substrate peptide at the end of an enzymatic reaction. These different states of peptide are resolved by applying a potential difference across the sample. The presence of a charged phosphate group on the product (as opposed to the substrate) causes a different peptide mobility between the two peptides. This is visualized by excitation of a fluorescent label on the substrate and product peptides and represented as peaks within the analysis software.
# The Desktop Profiler utilizes the same principal as the LC 3000 for calculating percentage conversion of a substrate to product. Caliper Life Sciences provided proprietary flash frozen pre-made 384 well plates containing selected kinases. Each column in the 384 well plate contained a particular selected kinase. A second plate, the ‘substrate plate’ contained a mix of fluorescently labeled peptide substrate and ATP. These were arranged in columns so that transfer for substrate plate to enzyme plate provided the correct enzyme with the correct substrate/ATP concentration.
# Compounds were added to a thawed enzyme plate in the desired format, in single concentrations. Reactions were initiated by transfer of the ubstrate/ATP mix from the substrate plate. The enzyme plate was incubated for 90 mins at 25 °C. The reaction was stopped by addition of […] of Stop Buffer (100 mM HEPES pH 7.5, 0.015% Brij-35, 10 mM EDTA (Sigma, E7889)).
# Plates were read in a manner identical to that of the LC3000, and the ratio between substrate and product peaks provided the activity of the enzyme in that well. This was best represented by a plate heat map which colors each well by percent inhibition as compared to positive and negative controls (no inhibitors and no ATP respectively).
# Axl(h) = target: T1, Axl(h) (Homo sapiens, UniProt P30530); assay type: biochemical
# T1 construct: purchased Caliper Life Sciences
# T1 sequence (P30530 26-894): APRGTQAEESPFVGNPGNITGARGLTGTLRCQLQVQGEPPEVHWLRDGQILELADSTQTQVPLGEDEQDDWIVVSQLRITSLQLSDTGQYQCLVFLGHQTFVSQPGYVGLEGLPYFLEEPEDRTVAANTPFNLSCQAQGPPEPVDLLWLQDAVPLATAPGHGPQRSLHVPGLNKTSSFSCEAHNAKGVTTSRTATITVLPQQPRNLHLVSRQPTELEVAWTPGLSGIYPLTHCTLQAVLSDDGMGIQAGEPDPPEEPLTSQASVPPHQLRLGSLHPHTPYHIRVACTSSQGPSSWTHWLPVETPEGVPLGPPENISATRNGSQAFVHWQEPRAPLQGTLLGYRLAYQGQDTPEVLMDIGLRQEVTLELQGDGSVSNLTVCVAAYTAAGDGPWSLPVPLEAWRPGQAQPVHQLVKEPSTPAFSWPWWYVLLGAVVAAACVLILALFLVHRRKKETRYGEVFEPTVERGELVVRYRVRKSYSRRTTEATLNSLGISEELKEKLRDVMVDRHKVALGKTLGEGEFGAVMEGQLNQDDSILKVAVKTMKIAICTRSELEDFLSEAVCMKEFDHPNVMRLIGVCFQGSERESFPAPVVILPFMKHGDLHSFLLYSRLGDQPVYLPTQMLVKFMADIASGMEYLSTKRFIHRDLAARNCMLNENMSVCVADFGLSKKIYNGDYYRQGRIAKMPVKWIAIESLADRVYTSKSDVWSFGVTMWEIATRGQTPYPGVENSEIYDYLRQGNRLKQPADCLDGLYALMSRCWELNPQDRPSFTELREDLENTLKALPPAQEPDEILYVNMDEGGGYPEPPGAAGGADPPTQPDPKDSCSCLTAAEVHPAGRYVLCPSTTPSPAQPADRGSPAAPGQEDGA
# How it was run: (§1)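 Mobility-shift readout (Caliper Desktop Profiler): substrate and phosphopeptide resolved electrophoretically from fluorescent label. Compounds tested at a single concentration, 90 min at 25 °C with labelled peptide and ATP. Percent inhibition relative to no-inhibitor and no-ATP wells.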
# ROCK-II(h) = target: T2, ROCK-II(h) (Homo sapiens, UniProt O75116); assay type: biochemical
# T2 construct: purchased Caliper Life Sciences
# How it was run: as §1
# FGFR4(h) = target: T3, FGFR4(h) (Homo sapiens, UniProt P22455); assay type: biochemical
# T3 construct: purchased Caliper Life Sciences
# How it was run: as §1
# Flt3(D835Y)(h) = target: T4, Flt3(D835Y)(h) (Homo sapiens, UniProt P36888, D835Y); assay type: biochemical
# T4 construct: purchased Caliper Life Sciences
# T4 sequence (P36888 27-993 D835Y): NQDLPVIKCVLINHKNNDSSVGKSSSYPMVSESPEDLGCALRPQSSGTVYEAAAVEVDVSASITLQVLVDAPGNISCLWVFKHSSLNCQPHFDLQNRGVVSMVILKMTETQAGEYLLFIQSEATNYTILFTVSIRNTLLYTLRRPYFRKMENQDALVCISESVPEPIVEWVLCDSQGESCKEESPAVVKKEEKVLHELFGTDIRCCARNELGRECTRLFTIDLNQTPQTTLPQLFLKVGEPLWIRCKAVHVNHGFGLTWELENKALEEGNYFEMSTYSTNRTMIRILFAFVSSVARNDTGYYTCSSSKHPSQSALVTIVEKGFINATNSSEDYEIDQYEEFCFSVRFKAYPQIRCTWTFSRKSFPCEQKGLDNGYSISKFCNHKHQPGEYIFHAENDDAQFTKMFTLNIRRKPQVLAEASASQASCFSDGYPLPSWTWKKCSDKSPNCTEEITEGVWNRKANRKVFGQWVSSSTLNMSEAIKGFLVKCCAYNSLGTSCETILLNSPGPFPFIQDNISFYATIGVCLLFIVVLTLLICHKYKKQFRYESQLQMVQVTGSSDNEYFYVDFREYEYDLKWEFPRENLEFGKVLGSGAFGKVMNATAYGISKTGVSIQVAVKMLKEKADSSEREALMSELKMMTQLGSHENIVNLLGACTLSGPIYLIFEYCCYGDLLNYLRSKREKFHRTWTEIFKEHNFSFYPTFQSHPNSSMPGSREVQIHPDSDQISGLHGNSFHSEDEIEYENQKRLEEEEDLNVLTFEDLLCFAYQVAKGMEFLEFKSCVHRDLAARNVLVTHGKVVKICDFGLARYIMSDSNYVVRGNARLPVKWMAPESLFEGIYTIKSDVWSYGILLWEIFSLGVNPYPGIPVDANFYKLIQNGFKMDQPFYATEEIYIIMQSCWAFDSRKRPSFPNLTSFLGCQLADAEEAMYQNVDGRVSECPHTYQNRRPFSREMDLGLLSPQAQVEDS
# How it was run: as §1
# Met(h) = target: T5, Met(h) (Homo sapiens, UniProt P08581); assay type: biochemical
# T5 construct: purchased Caliper Life Sciences
# How it was run: as §1
# Abl(T315I)(h) = target: T6, Abl(T315I)(h) (Homo sapiens, UniProt P00519, T315I); assay type: biochemical
# T6 construct: purchased Caliper Life Sciences
# How it was run: as §1
# CDK2/cyclinE(h) = target: T7, CDK2/cyclinE(h) (Homo sapiens, UniProt P24941); assay type: biochemical
# T7 construct: purchased Caliper Life Sciences
# How it was run: as §1
# T3 sequence (P22455 22-802): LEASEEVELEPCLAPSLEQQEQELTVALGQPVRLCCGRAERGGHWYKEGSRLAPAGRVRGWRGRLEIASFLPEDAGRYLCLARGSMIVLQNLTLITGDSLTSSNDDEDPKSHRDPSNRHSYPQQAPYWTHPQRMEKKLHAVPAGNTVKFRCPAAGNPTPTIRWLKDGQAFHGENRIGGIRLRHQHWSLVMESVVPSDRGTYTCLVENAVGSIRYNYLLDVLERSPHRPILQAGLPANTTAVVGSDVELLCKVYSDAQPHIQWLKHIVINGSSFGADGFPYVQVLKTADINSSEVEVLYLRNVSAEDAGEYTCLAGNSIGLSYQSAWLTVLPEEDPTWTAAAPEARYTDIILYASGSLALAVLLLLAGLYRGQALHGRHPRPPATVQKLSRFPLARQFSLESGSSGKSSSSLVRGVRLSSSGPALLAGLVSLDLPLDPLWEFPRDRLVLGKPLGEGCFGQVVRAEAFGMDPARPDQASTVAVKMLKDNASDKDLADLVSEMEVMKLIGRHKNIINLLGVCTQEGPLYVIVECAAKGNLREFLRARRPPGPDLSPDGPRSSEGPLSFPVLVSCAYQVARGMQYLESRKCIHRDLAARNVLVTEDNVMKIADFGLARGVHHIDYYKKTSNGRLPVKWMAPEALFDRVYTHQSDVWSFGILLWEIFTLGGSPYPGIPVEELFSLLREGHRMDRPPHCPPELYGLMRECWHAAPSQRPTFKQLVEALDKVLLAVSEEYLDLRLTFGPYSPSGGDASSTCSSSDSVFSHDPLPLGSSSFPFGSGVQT
# T5 sequence (P08581 25-1390): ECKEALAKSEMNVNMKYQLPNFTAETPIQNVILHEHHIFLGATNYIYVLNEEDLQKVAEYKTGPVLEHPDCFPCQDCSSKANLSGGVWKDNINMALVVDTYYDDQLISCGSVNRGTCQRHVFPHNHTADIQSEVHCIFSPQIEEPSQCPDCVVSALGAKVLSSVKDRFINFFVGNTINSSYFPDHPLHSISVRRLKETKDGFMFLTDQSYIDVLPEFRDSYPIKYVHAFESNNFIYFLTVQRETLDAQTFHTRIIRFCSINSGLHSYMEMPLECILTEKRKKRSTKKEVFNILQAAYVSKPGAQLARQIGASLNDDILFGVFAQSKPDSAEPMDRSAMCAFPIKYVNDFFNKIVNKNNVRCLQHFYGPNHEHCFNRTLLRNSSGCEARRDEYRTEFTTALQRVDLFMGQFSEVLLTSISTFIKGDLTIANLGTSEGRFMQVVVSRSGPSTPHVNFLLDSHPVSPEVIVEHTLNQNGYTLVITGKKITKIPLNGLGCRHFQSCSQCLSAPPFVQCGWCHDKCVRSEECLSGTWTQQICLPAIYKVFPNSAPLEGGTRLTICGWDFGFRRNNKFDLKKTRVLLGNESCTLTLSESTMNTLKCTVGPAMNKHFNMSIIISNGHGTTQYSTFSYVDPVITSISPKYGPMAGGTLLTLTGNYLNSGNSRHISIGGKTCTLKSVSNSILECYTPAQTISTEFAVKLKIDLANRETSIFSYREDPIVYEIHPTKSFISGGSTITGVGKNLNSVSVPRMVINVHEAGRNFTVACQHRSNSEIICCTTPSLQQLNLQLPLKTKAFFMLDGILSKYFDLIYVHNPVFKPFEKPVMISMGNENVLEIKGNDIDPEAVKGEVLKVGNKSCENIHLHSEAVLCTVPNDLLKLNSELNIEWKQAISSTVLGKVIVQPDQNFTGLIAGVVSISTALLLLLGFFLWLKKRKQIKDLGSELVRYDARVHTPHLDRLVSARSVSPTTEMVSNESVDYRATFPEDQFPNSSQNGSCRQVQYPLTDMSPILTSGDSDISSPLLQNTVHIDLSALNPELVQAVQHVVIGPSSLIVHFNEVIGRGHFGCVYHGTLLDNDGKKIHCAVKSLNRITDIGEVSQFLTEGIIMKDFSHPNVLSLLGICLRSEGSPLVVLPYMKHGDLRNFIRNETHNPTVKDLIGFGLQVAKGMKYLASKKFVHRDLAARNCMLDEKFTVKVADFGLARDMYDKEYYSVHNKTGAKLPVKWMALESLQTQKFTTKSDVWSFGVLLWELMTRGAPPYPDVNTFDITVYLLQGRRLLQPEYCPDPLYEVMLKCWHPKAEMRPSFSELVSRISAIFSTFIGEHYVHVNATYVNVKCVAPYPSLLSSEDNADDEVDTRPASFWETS
# T2 sequence (O75116 whole entry): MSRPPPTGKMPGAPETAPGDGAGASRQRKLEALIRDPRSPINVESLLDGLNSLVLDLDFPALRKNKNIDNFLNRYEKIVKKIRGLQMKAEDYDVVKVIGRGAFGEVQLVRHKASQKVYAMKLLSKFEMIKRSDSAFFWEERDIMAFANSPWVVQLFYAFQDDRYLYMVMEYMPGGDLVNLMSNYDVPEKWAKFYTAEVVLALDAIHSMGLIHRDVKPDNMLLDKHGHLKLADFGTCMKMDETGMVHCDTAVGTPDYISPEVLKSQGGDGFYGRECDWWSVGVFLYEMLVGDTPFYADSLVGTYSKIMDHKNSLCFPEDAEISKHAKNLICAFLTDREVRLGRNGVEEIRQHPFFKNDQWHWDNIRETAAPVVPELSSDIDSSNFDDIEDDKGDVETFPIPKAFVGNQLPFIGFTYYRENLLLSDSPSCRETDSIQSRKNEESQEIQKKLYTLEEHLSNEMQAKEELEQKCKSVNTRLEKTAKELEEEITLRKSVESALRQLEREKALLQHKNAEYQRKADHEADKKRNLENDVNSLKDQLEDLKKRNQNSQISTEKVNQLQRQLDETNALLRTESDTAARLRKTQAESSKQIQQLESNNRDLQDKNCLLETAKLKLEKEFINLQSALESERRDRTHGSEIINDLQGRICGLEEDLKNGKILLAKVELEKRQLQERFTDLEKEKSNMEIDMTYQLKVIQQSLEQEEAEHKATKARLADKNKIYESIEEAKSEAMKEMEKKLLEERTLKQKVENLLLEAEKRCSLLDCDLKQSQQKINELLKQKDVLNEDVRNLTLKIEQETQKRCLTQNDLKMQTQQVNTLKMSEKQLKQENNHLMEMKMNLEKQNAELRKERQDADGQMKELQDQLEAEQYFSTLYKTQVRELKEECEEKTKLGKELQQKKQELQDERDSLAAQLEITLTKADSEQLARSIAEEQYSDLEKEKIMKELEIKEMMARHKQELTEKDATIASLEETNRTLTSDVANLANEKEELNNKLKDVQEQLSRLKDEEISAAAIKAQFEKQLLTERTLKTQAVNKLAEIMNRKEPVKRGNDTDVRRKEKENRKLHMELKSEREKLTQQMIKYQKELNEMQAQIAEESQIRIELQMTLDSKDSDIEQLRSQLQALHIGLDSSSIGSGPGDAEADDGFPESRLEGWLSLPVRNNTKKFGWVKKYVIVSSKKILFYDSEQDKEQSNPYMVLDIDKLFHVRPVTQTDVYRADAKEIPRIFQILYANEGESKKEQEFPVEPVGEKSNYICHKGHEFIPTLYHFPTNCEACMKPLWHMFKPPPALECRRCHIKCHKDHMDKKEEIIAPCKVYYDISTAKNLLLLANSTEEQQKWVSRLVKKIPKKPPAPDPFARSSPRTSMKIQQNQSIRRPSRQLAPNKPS
Compound,% inhibition Axl(h) (Axl(h); 10 μM) [%],% inhibition ROCK-II(h) (ROCK-II(h); 10 μM) [%],% inhibition FGFR4(h) (FGFR4(h); 10 μM) [%],% inhibition Flt3(D835Y)(h) (Flt3(D835Y)(h); 10 μM) [%],% inhibition Met(h) (Met(h); 10 μM) [%],% inhibition Abl(T315I)(h) (Abl(T315I)(h); 10 μM) [%],% inhibition CDK2/cyclinE(h) (CDK2/cyclinE(h); 10 μM) [%],% inhibition Axl(h) (Axl(h); 1 μM) [%],% inhibition ROCK-II(h) (ROCK-II(h); 1 μM) [%],% inhibition FGFR4(h) (FGFR4(h); 1 μM) [%],% inhibition Flt3(D835Y)(h) (Flt3(D835Y)(h); 1 μM) [%],% inhibition Met(h) (Met(h); 1 μM) [%],% inhibition Abl(T315I)(h) (Abl(T315I)(h); 1 μM) [%],% inhibition CDK2/cyclinE(h) (CDK2/cyclinE(h); 1 μM) [%],% inhibition AMPK(r) (AMPK(r); 10 μM) [%],% inhibition AMPK(r) (AMPK(r); 1 μM) [%]
O=C(O)[C@H]1[C@H]2C[C@H]3[C@H]1Nc1nc(ncc1F)Nc1cccc(c1)OCCS[C@@H]3C2 [Example 21],66,94,81,2,30,38,89,,,,,,,,57,
NC(=O)[C@H]1[C@H]2C[C@H]3[C@H]1Nc1nc(ncc1F)Nc1cccc(c1)CSS[C@@H]3C2 [Example 10],,,,,,,,10,90,128,7,41,47,23,,86
"C=C[C@@H]1C[C@@H]2/C=C/COc3cccc(c3)Nc3ncc(F)c(n3)N[C@H]2[C@H]1C(N)=O (single isomer, unassigned) [Example 3]",,,,,,,,107,80,122,77,115,92,114,,92
"CC[C@@H]1C[C@@H]2/C=C\COc3cccc(c3)Nc3ncc(F)c(n3)N[C@H]2[C@H]1C(N)=O (single isomer, unassigned) [Example 6]",,,,,,,,78,97,96,33,122,89,107,,51
"CC[C@@H]1C[C@@H]2CCCOc3cccc(c3)Nc3ncc(F)c(n3)N[C@H]2[C@H]1C(N)=O (single isomer, unassigned) [Example 5]",,,,,,,,96,105,94,63,114,103,109,,58
NC(=O)[C@H]1[C@H]2C[C@H]3[C@H]1Nc1nc(ncc1F)Nc1cccc(c1)OCCS[C@@H]3C2 [Example 20],,,,,,,,40,99,102,8,60,34,69,,81
NC(=O)[C@H]1[C@H]2C[C@H]3[C@H]1Nc1nc(ncc1F)Nc1cccc(c1)C(=O)CS[C@@H]3C2 [Example 11],,,,,,,,105,102,100,110,125,95,92,,97

# More lines, main results first:
% inhibition Axl(h) (Axl(h); 10 μM) [%],% inhibition ROCK-II(h) (ROCK-II(h); 10 μM) [%],% inhibition FGFR4(h) (FGFR4(h); 10 μM) [%],% inhibition Flt3(D835Y)(h) (Flt3(D835Y)(h); 10 μM) [%],% inhibition Met(h) (Met(h); 10 μM) [%],% inhibition Abl(T315I)(h) (Abl(T315I)(h); 10 μM) [%],% inhibition CDK2/cyclinE(h) (CDK2/cyclinE(h); 10 μM) [%],% inhibition Axl(h) (Axl(h); 1 μM) [%],% inhibition ROCK-II(h) (ROCK-II(h); 1 μM) [%],% inhibition FGFR4(h) (FGFR4(h); 1 μM) [%],% inhibition Flt3(D835Y)(h) (Flt3(D835Y)(h); 1 μM) [%],% inhibition Met(h) (Met(h); 1 μM) [%],% inhibition Abl(T315I)(h) (Abl(T315I)(h); 1 μM) [%],% inhibition CDK2/cyclinE(h) (CDK2/cyclinE(h); 1 μM) [%],Compound,% inhibition AMPK(r) (AMPK(r); 10 μM) [%],% inhibition AMPK(r) (AMPK(r); 1 μM) [%]
,,,,,,,40,92,87,3,46,13,133,CN1CCN(c2ccc3cc2OCCS[C@@H]2C[C@@H]4C[C@H]2[C@@H](Nc2nc(ncc2F)N3)[C@H]4C(N)=O)CC1 [Example 22],,65
,,,,,,,63,110,96,12,69,1,60,NC(=O)[C@H]1[C@H]2C[C@H]3[C@H]1Nc1nc(ncc1F)Nc1cccc(c1)NC(=O)CS[C@@H]3C2 [Example 27],,71
,,,,,,,55,94,53,57,9,2,15,N#Cc1ccc2cc1NC(=O)CS[C@@H]1C[C@@H]3C[C@H]1[C@@H](Nc1nc(ncc1F)N2)[C@H]3C(N)=O [Example 26],,79
,,,,,,,48,120,50,3,63,0,100,CN1CCN(c2ccc3cc2NC(=O)CS[C@@H]2C[C@@H]4C[C@H]2[C@@H](Nc2nc(ncc2F)N3)[C@H]4C(N)=O)CC1 [Example 24],,68
